# Patent US20240358831A1, “SELECTION OF IMMUNE CELLS USING PEPTIDE MHC COMPLEXES GENERATED BY CONDITIONAL LIGAND EXCHANGE” (IMMATICS US, INC., priority 2021, published 2024)
# System: CD8+ T cells
# Experiment: In vitro priming of CD8+ T cells with aAPCs (pHLA/anti-CD28) and pHLA multimer staining
# Type: cell-based, human
# Protocol: To perform in vitro stimulations by artificial antigen-presenting cells (aAPCs) loaded with peptide-HLA complexes (pHLA) and anti-CD28 antibody, the inventors first isolated CD8+ T cells via positive selection using CD8 microbeads (Miltenyi Biotec, Bergisch-Gladbach, Germany) from fresh HLA-matched leukapheresis products of healthy donors obtained from the University clinics Mannheim, Germany, after informed consent.
# PBMCs and isolated CD8+ lymphocytes were incubated in T cell medium (TCM) until use consisting of RPMI-Glutamax (Thermo Fisher Scientific, Waltham, USA) supplemented with 10% heat-inactivated human AB serum (CC Pro, Oberdorla, Germany), 100 U/ml Penicillin/100 μg/ml Streptomycin (Biozym, Hessisch Oldendorf, Germany), 1 mM sodium pyruvate (CC Pro, Oberdorla, Germany) and 20 μg/ml Gentamycin (Biozym, Hessisch Oldendorf, Germany). 2.5 ng/ml IL-7 (PromoCell, Heidelberg, Germany) and 10 U/ml IL-2 (Novartis Pharma, Nürnberg, Germany) were also added to the TCM at this step.
# The purified co-stimulatory mouse IgG2a anti human CD28 Ab 9.3 (Jung et al., 1987) was chemically biotinylated using sulfo-N-hydroxysuccinimidobiotin as recommended by the manufacturer (Perbio, Bonn, Germany). Beads used were 5.6 μm diameter streptavidin coated polystyrene particles (Bangs Laboratories, Illinois, USA).
# 800.000 beads/200 μl were coated in 96-well plates in the presence of up to four different biotinylated pHLA complexes (total amount 50 ng/well), washed and 600 ng biotinylated anti-CD28 were added subsequently in a volume of 200 μl/well.
# Stimulations were initiated in 96-well plates by co-incubating 1×10^6 CD8+ T cells with 2×10^5 washed aAPCs in 200 μl TCM supplemented with 5 ng/ml IL-12 (PromoCell) for 3 days at 37° C. Half of the medium was then exchanged by fresh TCM supplemented with 80 U/ml IL-2 and incubation was continued for 4 days at 37° C. This stimulation cycle was performed for a total of three times. […]
# For the pHLA multimer readout using up to eight different pHLA molecules per condition, a two-dimensional combinatorial coding approach was used as previously described (Andersen et al., 2012a; Andersen et al., 2012b) with minor modifications encompassing coupling to 5 different fluorochromes.
# Finally, multimeric analyses were performed by staining the cells with Live/dead near IR dye (Thermo Fisher Scientific, Waltham, USA), CD8-FITC antibody clone SK1 (BD, Heidelberg, Germany) and fluorescent pHLA multimers. […] Peptide-specific cells were calculated as percentage of total CD8+ cells. […] In vitro priming of specific multimer+CD8+ lymphocytes was detected by comparing to negative control stimulations.
substance,measurement,setting,value
RL(X)VGSIPR [HNRNPR-002],UV peptide-specific T cell populations (multimer+ cells among CD8+ cells),"stimulated with pHLA obtained after UV exchange A*03:01_HNRNPR-002×HADV-014 (residual UV monomer), three cycles, FIG. 5 B",6.7 % of CD8+ cells
SARPPL(X)SV [MUDENG-002],UV peptide-specific T cell populations (multimer+ cells among CD8+ cells),"stimulated with standard refolded pHLA B*07:02_MUDENG-002, three cycles of stimulation, FIG. 5 A",2.4 % of CD8+ cells
KILGFVF(X)V [FLUM-003],Presence of peptide specific cells by multimer staining (standard refolded multimers),"after stimulation with A*02:01_FLUM-003×MLA-001, FIG. 3 C+D",confirmed the presence
same,Detection of conditional ligand specific cells by multimer staining with EC monomers from the same UV monomer,"priming with HLA-A*02_FLUM-003×CMV-001, FIG. 6 Plate B, stimulation position 1 and 2",FLUM-003 specific cells were stimulated and detected
